Data taken from US10131652B2, “Pyrimidinyloxy benzene derivatives as herbicides” (E. I. DU PONT DE NEMOURS AND COMPANY, priority 2014, dated 2018).

Key:
Type in all cases: in vivo
[1] = system: ragweed (common ragweed, Ambrosia elatior); assay: Test B pre-/postemergence plant response
Description: (§1) Seeds of plant species selected from bamyardgrass (Echinochloa crus-galli), kochia (Kochia scoparia), ragweed (common ragweed, Ambrosia elatior), Italian ryegrass (Lolium multiflorum), large (Lg) crabgrass (Digitaria sanguinalis), giant foxtail (Setaria faberii), momingglory (Ipomoea spp.), pigweed (Amaranthus retroflexus), velvetleaf (Abutilon theophrasti), wheat (Triticum aestivum), and corn (Zea mays) were planted into a blend of loam soil and sand and treated preemergence with a directed soil spray using test chemicals formulated in a non-phytotoxic solvent mixture which included a surfactant. At the same time, plants selected from these crop and weed species and also blackgrass (Alopecurus myosuroides), and galium (catchweed bedstraw, Galium aparine) were planted in pots containing the same blend of loam soil and sand and treated with postemergence applications of test chemicals formulated in the same manner. Plants ranged in height from 2 to 10 cm and were in the one- to two-leaf stage for the postemergence treatment. Treated plants and untreated controls were maintained in a greenhouse for approximately 10 days, after which time all treated plants were compared to untreated controls and visually evaluated for injury. Plant response ratings, summarized in Table B, are based on a 0 to 100 scale where 0 is no effect and 100 is complete control. A dash (-) response means no test result.

corn (Zea mays) = assay: Test B pre-/postemergence plant response
Description: as §1

[2] = system: Italian ryegrass (Lolium multiflorum); assay: Test B pre-/postemergence plant response
Description: as §1

kochia (Kochia scoparia) = assay: Test B pre-/postemergence plant response
Description: as §1

[3] = system: pigweed (Amaranthus retroflexus); assay: Test B pre-/postemergence plant response
Description: as §1

[4] = system: barnyardgrass (Echinochloa crus-galli); assay: Test B pre-/postemergence plant response
Description: as §1

[5] = system: giant foxtail (Setaria faberii); assay: Test B pre-/postemergence plant response
Description: as §1

[6] = system: wheat (Triticum aestivum); assay: Test B pre-/postemergence plant response
Description: as §1

[7] = system: blackgrass (Alopecurus myosuroides); assay: Test B postemergence plant response
Outline: (§2)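 Weeds grown in loam soil/sand pots were sprayed postemergence at 2 to 10 cm height, one- to two-leaf stage. After approximately 10 days in greenhouse, injury was rated visually against untreated controls on a 0 (no effect) to 100 (complete control) scale; dash means no test result.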

[8] = system: galium (catchweed bedstraw, Galium aparine); assay: Test B postemergence plant response
Outline: as §2

[9] = system: small-flower umbrella sedge (Cyperus difformis); assay: Test C flooded paddy test plant response; conditions: Flood, 250 g ai/ha; scale of 0 to 100 where 0 is no effect and 100 is complete control; 13 to 15 days
Outline: (§3)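 Water-applied treatment: compounds go directly into floodwater standing 3 cm over the soil of pots holding 2-leaf-stage plants. Depth is kept constant; plants stay in a greenhouse 13 to 15 days before visual comparison with controls on a 0–100 scale.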

[10] = system: barnyardgrass (Echinochloa crus-galli); assay: Test C flooded paddy test plant response; conditions: Flood, 250 g ai/ha; scale of 0 to 100 where 0 is no effect and 100 is complete control; 13 to 15 days
Outline: as §3

[11] = system: ducksalad (Heteranthera limosa); assay: Test C flooded paddy test plant response; conditions: Flood, 250 g ai/ha; scale of 0 to 100 where 0 is no effect and 100 is complete control; 13 to 15 days
Outline: as §3

rice (Oryza sativa) = assay: Test C flooded paddy test plant response; conditions: Flood, 250 g ai/ha; scale of 0 to 100 where 0 is no effect and 100 is complete control; 13 to 15 days
Outline: as §3

[12] = 31 g ai/ha, Preemergence, 0 to 100 scale where 0 is no effect and 100 is complete control
[13] = 125 g ai/ha, postemergence, 0 to 100 scale, 0 no effect, 100 complete control
[14] = Postemergence, 31 g ai/ha, 0 to 100 scale (0 no effect, 100 complete control)
[15] = Preemergence, 125 g ai/ha, 0 to 100 scale (0 no effect, 100 complete control)
[16] = 31 g ai/ha, Postemergence, 0 to 100 scale, 0 no effect, 100 complete control
[17] = Preemergence, 31 g ai/ha, 0 to 100 scale (0 no effect, 100 complete control)
[18] = Preemergence, 125 g ai/ha, 0 to 100 scale where 0 is no effect and 100 is complete control
[19] = 500 g ai/ha, postemergence, 0 to 100 scale, 0 no effect, 100 complete control
[20] = Preemergence, 500 g ai/ha, 0 to 100 scale where 0 is no effect and 100 is complete control

Brc1cnc(Oc2ccccc2-c2ccns2)nc1 [Compound 234]
20: Plant response rating, Pigweed [3, 13]
10: Plant response rating, Ragweed [1, 13] | Plant response rating, Corn (corn (Zea mays); [13]) | Plant response rating, Blackgrass [7, 13]
0: Plant response rating, Ragweed [1, 12] | Plant response rating, Ragweed [1, 14] | Plant response rating, Corn (corn (Zea mays); [14]) | Plant response rating, Ryegrass, Italian [2, 12] | Plant response rating, Ryegrass, Italian [2, 13] | Plant response rating, Ryegrass, Italian [2, 14] | Ryegrass, Italian plant response rating [2, 15] | Plant response rating, Kochia (kochia (Kochia scoparia); [12]) | Plant response rating, Kochia (kochia (Kochia scoparia); [13]) | Plant response rating, Kochia (kochia (Kochia scoparia); [14]) | Kochia plant response rating (kochia (Kochia scoparia); [15]) | Plant response rating, Pigweed [3, 12] | Plant response rating, Pigweed [3, 14] | Pigweed plant response rating [3, 15] | Plant response rating, Barnyardgrass [4, 12] | Plant response rating, Barnyardgrass [4, 13] | Plant response rating, Barnyardgrass [4, 14] | Barnyardgrass plant response rating [4, 15] | Plant response rating, Foxtail, Giant [5, 12] | Plant response rating, Foxtail, Giant [5, 13] | Plant response rating, Foxtail, Giant [5, 14] | Foxtail, Giant plant response rating [5, 15] | Plant response rating, Wheat [6, 13] | Plant response rating, Wheat [6, 14] | Plant response rating, Blackgrass [7, 14] | Plant response rating, Galium [8, 13] | Plant response rating, Galium [8, 14] | Sedge, Umbrella plant response rating [9] | Barnyardgrass plant response rating [10] | Ducksalad plant response rating [11] | Rice plant response rating (rice (Oryza sativa))

FC(F)c1ccc(-c2ccccc2Oc2ncc(Cl)cn2)o1 [Compound 239]
0: Plant response rating, Ragweed [1, 12] | Plant response rating, Ragweed [1, 13] | Plant response rating, Ragweed [1, 14] | Ragweed plant response rating [1, 15] | Plant response rating, Corn (corn (Zea mays); [14]) | Plant response rating, Ryegrass, Italian [2, 12] | Plant response rating, Ryegrass, Italian [2, 13] | Plant response rating, Ryegrass, Italian [2, 14] | Ryegrass, Italian plant response rating [2, 15] | Plant response rating, Kochia (kochia (Kochia scoparia); [12]) | Plant response rating, Kochia (kochia (Kochia scoparia); [13]) | Plant response rating, Kochia (kochia (Kochia scoparia); [14]) | Kochia plant response rating (kochia (Kochia scoparia); [15]) | Plant response rating, Pigweed [3, 12] | Plant response rating, Pigweed [3, 14] | Pigweed plant response rating [3, 15] | Plant response rating, Barnyardgrass [4, 12] | Plant response rating, Barnyardgrass [4, 13] | Plant response rating, Barnyardgrass [4, 14] | Barnyardgrass plant response rating [4, 15] | Plant response rating, Foxtail, Giant [5, 12] | Plant response rating, Foxtail, Giant [5, 13] | Plant response rating, Foxtail, Giant [5, 14] | Foxtail, Giant plant response rating [5, 15] | Plant response rating, Wheat [6, 13] | Plant response rating, Wheat [6, 14] | Plant response rating, Blackgrass [7, 13] | Plant response rating, Blackgrass [7, 14] | Plant response rating, Galium [8, 13] | Plant response rating, Galium [8, 14] | Sedge, Umbrella plant response rating [9] | Barnyardgrass plant response rating [10] | Ducksalad plant response rating [11] | Rice plant response rating (rice (Oryza sativa))
20: Plant response rating, Corn (corn (Zea mays); [13]) | Plant response rating, Pigweed [3, 13]

Cc1nc(-c2ccccc2Oc2ncc(Cl)cn2)co1 [Compound 70]
10: Plant response rating, Pigweed [3, 16]
20: Plant response rating, Pigweed [3, 13]
0: Plant response rating, Ragweed [1, 16] | Plant response rating, Ragweed [1, 13] | Ragweed plant response rating [1, 17] | Plant response rating, Ragweed [1, 18] | Plant response rating, Corn (corn (Zea mays); [16]) | Plant response rating, Corn (corn (Zea mays); [13]) | Plant response rating, Ryegrass, Italian [2, 16] | Plant response rating, Ryegrass, Italian [2, 13] | Ryegrass, Italian plant response rating [2, 17] | Plant response rating, Ryegrass, Italian [2, 18] | Plant response rating, Kochia (kochia (Kochia scoparia); [16]) | Plant response rating, Kochia (kochia (Kochia scoparia); [13]) | Kochia plant response rating (kochia (Kochia scoparia); [17]) | Plant response rating, Kochia (kochia (Kochia scoparia); [18]) | Pigweed plant response rating [3, 17] | Plant response rating, Pigweed [3, 18] | Plant response rating, Barnyardgrass [4, 16] | Plant response rating, Barnyardgrass [4, 13] | Barnyardgrass plant response rating [4, 17] | Plant response rating, Barnyardgrass [4, 18] | Plant response rating, Foxtail, Giant [5, 16] | Plant response rating, Foxtail, Giant [5, 13] | Foxtail, Giant plant response rating [5, 17] | Plant response rating, Foxtail, Giant [5, 18] | Plant response rating, Wheat [6, 16] | Plant response rating, Wheat [6, 13] | Plant response rating, Blackgrass [7, 16] | Plant response rating, Blackgrass [7, 13] | Plant response rating, Galium [8, 16] | Plant response rating, Galium [8, 13] | Sedge, Umbrella plant response rating [9] | Barnyardgrass plant response rating [10] | Ducksalad plant response rating [11] | Rice plant response rating (rice (Oryza sativa))

Fc1cccc(Oc2ncc(Cl)cn2)c1-c1cn(CC(F)(F)F)cn1 [Compound 217]
60: Plant response rating, Pigweed [3, 19]
10: Plant response rating, Ragweed [1, 13] | Plant response rating, Ryegrass, Italian [2, 20] | Plant response rating, Kochia (kochia (Kochia scoparia); [13]) | Plant response rating, Pigweed [3, 13] | Pigweed plant response rating [3, 15] | Plant response rating, Barnyardgrass [4, 20] | Plant response rating, Galium [8, 13]
20: Barnyardgrass plant response rating [10]
30: Plant response rating, Ragweed [1, 19] | Plant response rating, Kochia (kochia (Kochia scoparia); [19]) | Plant response rating, Foxtail, Giant [5, 20] | Plant response rating, Galium [8, 19]
70: Plant response rating, Pigweed [3, 20]
0: Ragweed plant response rating [1, 15] | Plant response rating, Ragweed [1, 20] | Plant response rating, Corn (corn (Zea mays); [13]) | Plant response rating, Corn (corn (Zea mays); [19]) | Plant response rating, Ryegrass, Italian [2, 13] | Plant response rating, Ryegrass, Italian [2, 19] | Ryegrass, Italian plant response rating [2, 15] | Kochia plant response rating (kochia (Kochia scoparia); [15]) | Plant response rating, Kochia (kochia (Kochia scoparia); [20]) | Plant response rating, Barnyardgrass [4, 13] | Plant response rating, Barnyardgrass [4, 19] | Barnyardgrass plant response rating [4, 15] | Plant response rating, Foxtail, Giant [5, 13] | Plant response rating, Foxtail, Giant [5, 19] | Foxtail, Giant plant response rating [5, 15] | Plant response rating, Wheat [6, 13] | Plant response rating, Wheat [6, 19] | Plant response rating, Blackgrass [7, 13] | Plant response rating, Blackgrass [7, 19] | Sedge, Umbrella plant response rating [9] | Rice plant response rating (rice (Oryza sativa))
40: Ducksalad plant response rating [11]
